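96-well plates; 48 h exposure; 5 concentrations. Endpoints by linear interpolation between flanking doses. Not reached: highest tested concentration assigned. GI50: concentration for 50% inhibition of growth.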 The source made the active and inactive calls. Rule as the data show it: active = GI50 up to about 1.1 µM and inactive = higher.
Columns and labels:
Experiment in all cases: inhibition of tumour cell growth, NCI panel, 48 h
IGROV-1 = test system: IGROV-1
UACC-62 = test system: UACC-62
Malme-3M = test system: Malme-3M
K562 = test system: K562
NCI-H23 = test system: NCI-H23
UO-31 = test system: UO-31
COLO 205 = test system: COLO 205
EKVX = test system: EKVX
DLD-1 = test system: DLD-1
RPMI-8226 = test system: RPMI-8226
MOLT-4 = test system: MOLT-4
HT-29 = test system: HT-29
OVCAR-5 = test system: OVCAR-5
UACC-257 = test system: UACC-257
CCRF-CEM = test system: CCRF-CEM
SN12C = test system: SN12C
A498 = test system: A498
NCI/ADR-RES = test system: NCI/ADR-RES
MCF7 = test system: MCF7
PC-3 = test system: PC-3

Measured: GI50

CC(O[Si](C)(C)C)C1C=CC(C)n2c(=O)n(-c3ccccc3)c(=O)n21 (stereo unspecified)
inactive: IGROV-1 > 100 µM | UACC-62 > 100 µM | Malme-3M > 100 µM | K562 > 100 µM | NCI-H23 > 100 µM | UO-31 > 100 µM | COLO 205 > 100 µM | EKVX > 100 µM | DLD-1 > 100 µM | RPMI-8226 > 100 µM | MOLT-4 > 100 µM | HT-29 > 100 µM | OVCAR-5 > 100 µM

C=C1c2[nH]c3c([N+](=O)[O-])c(OC)ccc3c2CCN1C(C)=O
inactive: UACC-257 > 100 µM | CCRF-CEM > 100 µM | IGROV-1 > 100 µM | UACC-62 61.9 µM | K562 > 100 µM | NCI-H23 > 100 µM | UO-31 > 100 µM | COLO 205 > 100 µM | SN12C > 100 µM | EKVX > 100 µM | DLD-1 22.1 µM | RPMI-8226 > 100 µM | MOLT-4 > 100 µM | HT-29 > 100 µM | OVCAR-5 > 100 µM | A498 > 100 µM

Cc1ccc(S(=O)(=O)N/N=C(/CC(=O)c2c(C)[n+]([O-])c3ccccc3[n+]2[O-])C(=O)Nc2ccccc2C)cc1
inactive: UACC-257 > 100 µM | IGROV-1 > 100 µM | UACC-62 > 100 µM | Malme-3M > 100 µM | NCI-H23 > 100 µM | UO-31 > 100 µM | COLO 205 > 100 µM | SN12C > 100 µM | EKVX > 100 µM | DLD-1 > 100 µM | RPMI-8226 > 100 µM | HT-29 > 100 µM | OVCAR-5 > 100 µM | A498 > 100 µM

N=C(N)NCCCC(Nc1c2ccccc2nc2ccccc12)C(=O)O (stereo unspecified)
inactive: UACC-257 > 100 µM | CCRF-CEM > 100 µM | Malme-3M > 100 µM | K562 84.9 µM | NCI-H23 > 100 µM | COLO 205 > 100 µM | SN12C > 100 µM | EKVX > 100 µM | DLD-1 > 100 µM | RPMI-8226 33.1 µM | MOLT-4 86.7 µM | HT-29 > 100 µM | OVCAR-5 > 100 µM

CCCC12Cc3c(OC)ccc(OC)c3CC(Cc3c(OC)ccc(OC)c31)C2=O (stereo unspecified)
inactive: UACC-257 > 100 µM | CCRF-CEM > 100 µM | Malme-3M 69.3 µM | K562 > 100 µM | NCI-H23 > 100 µM | UO-31 > 100 µM | SN12C > 100 µM | EKVX > 100 µM | DLD-1 > 100 µM | MOLT-4 7.36 µM | HT-29 > 100 µM | OVCAR-5 > 100 µM | A498 > 100 µM

COc1ccc(C2=NN(C(=O)COc3ccc(Cl)cc3)C(O)(c3ccc(Cl)cc3)C2)cc1 (stereo unspecified)
inactive: UACC-257 > 100 µM | IGROV-1 > 100 µM | UACC-62 > 100 µM | Malme-3M > 100 µM | K562 > 100 µM | NCI-H23 36.1 µM | UO-31 > 100 µM | COLO 205 > 100 µM | SN12C > 100 µM | DLD-1 > 100 µM | RPMI-8226 > 100 µM | MOLT-4 > 100 µM | HT-29 > 100 µM | OVCAR-5 > 100 µM

COc1ccc(/C=N/Nc2nc(-c3cc4oc(=O)n(C)c4cc3Cl)cs2)cc1OC
inactive: UACC-257 4.27 µM | CCRF-CEM 91 µM | IGROV-1 14 µM | UACC-62 16.8 µM | Malme-3M 10.5 µM | K562 4.89 µM | NCI-H23 6.15 µM | UO-31 13.6 µM | COLO 205 81.8 µM | SN12C 17.9 µM | EKVX 9.51 µM | DLD-1 10.7 µM | RPMI-8226 8.26 µM | MOLT-4 9.75 µM | HT-29 9.33 µM | OVCAR-5 > 100 µM

COc1cc(Nc2nc3ccc(C(F)(F)F)cc3nc2-c2ccccc2)cc(OC)c1OC
inactive: UACC-257 16.1 µM | CCRF-CEM 8.11 µM | IGROV-1 > 100 µM | UACC-62 36.2 µM | Malme-3M 37 µM | K562 5.56 µM | NCI-H23 67.5 µM | UO-31 10 µM | COLO 205 > 10 µM | SN12C 18.7 µM | EKVX 18.2 µM | DLD-1 6.73 µM | MOLT-4 8.41 µM | HT-29 1.98 µM | OVCAR-5 20.7 µM | A498 24.5 µM

O=[N+]([O-])c1ccc(-[n+]2ccc3ccccc3c2)c([N+](=O)[O-])c1
inactive: UACC-257 1.81 µM | CCRF-CEM 1.54 µM | IGROV-1 3.1 µM | UACC-62 2.28 µM | Malme-3M 3.94 µM | K562 1.55 µM | NCI-H23 2.43 µM | UO-31 5.02 µM | COLO 205 2.55 µM | SN12C 2.69 µM | NCI/ADR-RES 3.28 µM | EKVX 6.73 µM | MCF7 1.88 µM | RPMI-8226 2.32 µM | PC-3 3.93 µM | MOLT-4 2.83 µM | HT-29 2.33 µM | OVCAR-5 11.7 µM | A498 14.8 µM

CCO/C=N/C1=C(C#N)SC2=N/C(=C\c3ccccc3)C(=O)N21
inactive: UACC-257 > 100 µM | CCRF-CEM 60.5 µM | IGROV-1 > 100 µM | UACC-62 > 100 µM | Malme-3M > 100 µM | K562 41.9 µM | NCI-H23 > 100 µM | UO-31 > 100 µM | COLO 205 > 100 µM | SN12C > 100 µM | NCI/ADR-RES > 100 µM | EKVX 77.3 µM | MCF7 > 100 µM | RPMI-8226 > 58.1 µM | PC-3 > 100 µM | MOLT-4 31.7 µM | HT-29 > 100 µM | OVCAR-5 > 100 µM | A498 > 85.1 µM

Cc1ccnc2nc(-c3cccc4ccccc34)cc(O)c12
active: CCRF-CEM 0.00527 µM | IGROV-1 0.043 µM | UACC-62 0.00196 µM | Malme-3M 0.000708 µM | K562 0.000483 µM | NCI-H23 0.0783 µM | UO-31 0.0188 µM | COLO 205 0.0177 µM | SN12C 0.127 µM | NCI/ADR-RES 0.00237 µM | EKVX 0.0272 µM | MCF7 0.0304 µM | RPMI-8226 0.00682 µM | PC-3 0.0113 µM | MOLT-4 0.00989 µM | HT-29 0.00296 µM | OVCAR-5 0.0516 µM | A498 0.00167 µM
inactive: UACC-257 23.1 µM

CC(=O)/C(=C\I)c1ccccc1
inactive: UACC-257 3.04 µM | CCRF-CEM 1.97 µM | IGROV-1 2.1 µM | UACC-62 1.77 µM | Malme-3M 1.67 µM | NCI-H23 2.23 µM | UO-31 3.85 µM | COLO 205 1.71 µM | SN12C 1.99 µM | NCI/ADR-RES 10 µM | EKVX 18.6 µM | MCF7 1.8 µM | RPMI-8226 2.03 µM | PC-3 2.51 µM | MOLT-4 1.89 µM | OVCAR-5 1.49 µM | A498 17.7 µM
active: K562 0.481 µM | HT-29 0.995 µM
